According to ChEMBL document CHEMBL1130546, “Oligopresentation of protease inhibitors with -cyclodextrin as template” (Bioorg Med Chem Lett, 1997):
Where a SMILES comes first, the peptide text is derived from it. [ ]: non-standard residue; d: D form. Nle = CCCC[C@H](N)C(=O)O

Experiments:
[1] = target: T1, Calpain-1 catalytic subunit (Homo sapiens, UniProt P07384); assay: Equilibrium dissociation constant for the inhibition of human Mu-calpain was determined
T1 sequence (P07384 whole entry): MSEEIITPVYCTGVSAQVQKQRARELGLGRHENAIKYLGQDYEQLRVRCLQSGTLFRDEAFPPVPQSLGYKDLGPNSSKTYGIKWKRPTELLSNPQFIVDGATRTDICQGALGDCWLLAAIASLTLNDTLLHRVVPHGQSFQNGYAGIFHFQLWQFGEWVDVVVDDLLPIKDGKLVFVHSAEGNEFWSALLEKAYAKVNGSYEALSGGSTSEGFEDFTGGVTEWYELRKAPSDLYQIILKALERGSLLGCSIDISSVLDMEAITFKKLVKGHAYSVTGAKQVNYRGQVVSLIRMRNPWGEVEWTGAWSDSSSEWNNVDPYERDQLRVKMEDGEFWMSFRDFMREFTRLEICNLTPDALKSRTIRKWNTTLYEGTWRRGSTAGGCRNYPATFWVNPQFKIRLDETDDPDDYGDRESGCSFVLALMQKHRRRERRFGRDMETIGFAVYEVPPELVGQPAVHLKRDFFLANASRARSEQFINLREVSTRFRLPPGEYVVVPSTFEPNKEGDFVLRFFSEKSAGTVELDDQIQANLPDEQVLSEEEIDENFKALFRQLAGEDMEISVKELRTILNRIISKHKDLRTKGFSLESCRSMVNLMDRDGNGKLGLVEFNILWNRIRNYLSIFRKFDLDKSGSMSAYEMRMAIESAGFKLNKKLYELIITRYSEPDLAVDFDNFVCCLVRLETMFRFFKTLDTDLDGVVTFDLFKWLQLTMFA

Cathepsin B = Cathepsin B (Homo sapiens, UniProt P07858); assay: Equilibrium dissociation constant for the inhibition of human cathepsin B was determined

What does the source list for `CCCC[C@H](NC(=O)[C@H](CC(C)C)NC(=O)[C@H](CC(C)C)NC(C)=O)C(=O)O` (Ac-Leu-Leu-[Nle]-OH)?
Ki [1]: 3.4 nM; Ki (Cathepsin B): 1 nM
